In patent USRE42394E1, “Fungicidal compositions for the enhancement of turf quality” (Bayer CropScience Inc., priority 1995, dated 2011):

Test system: bentgrass cultivar “Penncross”
Test: Turf quality and color ratings on fungicide-treated bentgrass field plots (decline from crown and root rot)
Format: in vivo
Details: summary statements of the text on the field tests
Protocol: Fungicides were evaluated on a one-year-old stand of the bentgrass cultivar “Penncross” planted in Raleigh, N.C., U.S.A. The bentgrass was planted in native soil and maintained under conditions similar to a golf green with a mowing height of 0.635 cm (.25 inches).
The fungicides were applied separately and in combination at labelled rates to 1.5 m×1.5 m (5 ft×5 ft) plots of bentgrass prior to evidence of any decline in turf quality due to crown and root rot. A CO2 backpack sprayer was used to apply the fungicide treatments at (30 lbs psi) using TEEJET™ 8004 nozzles to apply 9.5 liters (2.5 gallons) of fungicide dilutions per 93 square meters (1000 sq ft). The fungicides were initially applied and subsequently reapplied according to a 14 day schedule. In some experiments, an electrical pump sprayer was used to apply the treatments at 30 psi using a Teejet 8004 nozzle.
Turf quality, color and percent disease ratings were recorded weekly, based on a scale from 1-9, with 9 being ideal turf quality and color and 1 being all turf dead. The percent disease ratings were calculated based on the percent of area in each plot showing symptoms of brown patch. Turf quality and color ratings were used as an indicator of the health of the bentgrass and the amount of decline associated with crown and root rot.

[Cu+2].c1ccc2c(c1)-c1nc-2nc2[n-]c(nc3nc(nc4[n-]c(n1)c1ccccc41)-c1ccccc1-3)c1ccccc21 [Pigment Blue 15]
turf quality and color, comparison in words: enhances the activity of the ALIETTE™ and mancozeb in a synergistic interaction
